“And” between values parts separate entries of the source, which are not always exact repeats. Equal values may be shown once. Toxic doses and inconclusive results are not listed. Rule as the data show it: active = T/C of 150% or more; inactive = T/C below 125%.
Test system: L1210 leukemia ip in BDF1 mice, survival T/C
Test: NCI In Vivo Anticancer Drug Screen. Data for tumor model L1210 Leukemia (intraperitoneal) in B6D2F1 (BDF1) mice
Details: endpoint: mean survival time, higher = longer survival
Method in brief: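 In this screen, tumor-bearing mice given compound are compared to those given vehicle, and their survival values are reported as a treated-to-control quotient.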

[1] = dose: 12.0 mg/kg/injection, schedule: Q01DX009 (ip), vehicle: Klucel (hydroxypropylcellulose) (HPC)
[2] = dose: 25.0 mg/kg/injection, schedule: Q01DX009 (ip), vehicle: Klucel (hydroxypropylcellulose) (HPC)
[3] = dose: 100.0 mg/kg/injection, schedule: Q01DX001 (ip), vehicle: saline
[4] = dose: 200.0 mg/kg/injection, schedule: Q01DX001 (ip), vehicle: saline
[5] = dose: 400.0 mg/kg/injection, schedule: Q01DX001 (ip), vehicle: saline
[6] = dose: 100.0 mg/kg/injection, schedule: Q04DX003 (ip), vehicle: Klucel (hydroxypropylcellulose) (HPC)
[7] = dose: 200.0 mg/kg/injection, schedule: Q04DX003 (ip), vehicle: Klucel (hydroxypropylcellulose) (HPC)
[8] = dose: 25.0 mg/kg/injection, schedule: Q04DX003 (ip), vehicle: saline
[9] = dose: 50.0 mg/kg/injection, schedule: Q04DX003 (ip), vehicle: saline
[10] = dose: 100.0 mg/kg/injection, schedule: Q01DX009 (ip), vehicle: saline with Tween-80

Measured: T/C

CCCCOP(=O)(O)OCCCC.[Cd]
inactive: dose: 3.0 mg/kg/injection, schedule: Q01DX009 (ip), vehicle: Klucel (hydroxypropylcellulose) (HPC) 96 % of control | dose: 6.0 mg/kg/injection, schedule: Q01DX009 (ip), vehicle: Klucel (hydroxypropylcellulose) (HPC) 96 % of control | [1] 95 % of control | dose: 12.5 mg/kg/injection, schedule: Q01DX009 (ip), vehicle: Klucel (hydroxypropylcellulose) (HPC) 96 % of control | [2] 94 % of control

CC(=O)Nc1cc(C)cc(C)c1
inactive: dose: 50.0 mg/kg/injection, schedule: Q01DX001 (ip), vehicle: carboxymethylcellulose (CMC) 105 % of control | dose: 100.0 mg/kg/injection, schedule: Q01DX001 (ip), vehicle: carboxymethylcellulose (CMC) 111 % of control | dose: 200.0 mg/kg/injection, schedule: Q01DX001 (ip), vehicle: carboxymethylcellulose (CMC) 111 % of control | dose: 400.0 mg/kg/injection, schedule: Q01DX001 (ip), vehicle: carboxymethylcellulose (CMC) 105 % of control

C=C(C)[C@@H]1CC[C@@H](C)C[C@H]1O
inactive: [3] 103 % of control | [4] 100 % of control | [5] 105 % of control

CCCCCCCCC(=O)Nc1nc2c(ncn2C2OC(COC(C)=O)C(OC(C)=O)C2OC(C)=O)c(=O)[nH]1 (stereo not given)
inactive: dose: 100.0 mg/kg/injection, schedule: Q01DX005 (ip), vehicle: saline 92 % of control and 97 % of control | dose: 200.0 mg/kg/injection, schedule: Q01DX005 (ip), vehicle: saline 111 % of control and 97 % of control

C/C=C/C=C\COC(=O)C1CCCC1
inactive: dose: 100.0 mg/kg/injection, schedule: Q04DX002 (ip), vehicle: saline 103 % of control and 107 % of control | dose: 200.0 mg/kg/injection, schedule: Q04DX002 (ip), vehicle: saline 96 % of control and 98 % of control | dose: 400.0 mg/kg/injection, schedule: Q04DX002 (ip), vehicle: saline 107 % of control | dose: 600.0 mg/kg/injection, schedule: Q04DX002 (ip), vehicle: saline 107 % of control

O=CN(N=O)c1ccccc1
inactive: dose: 75.0 mg/kg/injection, schedule: Q01DX001 (ip), vehicle: other 104 % of control | dose: 150.0 mg/kg/injection, schedule: Q01DX001 (ip), vehicle: other 97 % of control | dose: 300.0 mg/kg/injection, schedule: Q01DX001 (ip), vehicle: other 96 % of control and 104 % of control

NC(=O)N/N=C1\CC2CCC1C2Cl (stereo not given)
inactive: dose: 75.0 mg/kg/injection, schedule: Q01DX001 (ip), vehicle: saline 100 % of control and 107 % of control | dose: 150.0 mg/kg/injection, schedule: Q01DX001 (ip), vehicle: saline 96 % of control | dose: 300.0 mg/kg/injection, schedule: Q01DX001 (ip), vehicle: saline 98 % of control and 88 % of control

CCOC(=O)C(=Cc1ccc(Cl)cc1)C(=O)OCC
inactive: [2] 95 % of control | dose: 50.0 mg/kg/injection, schedule: Q01DX009 (ip), vehicle: Klucel (hydroxypropylcellulose) (HPC) 97 % of control | dose: 100.0 mg/kg/injection, schedule: Q01DX009 (ip), vehicle: Klucel (hydroxypropylcellulose) (HPC) 102 % of control | [6] 107 % of control | [7] 98 % of control | dose: 400.0 mg/kg/injection, schedule: Q04DX003 (ip), vehicle: Klucel (hydroxypropylcellulose) (HPC) 100 % of control

CN=C1CN(O)C(c2ccccc2)=c2cc(Cl)ccc2=N1
inactive: dose: 25.0 mg/kg/injection, schedule: Q01DX009 (ip), vehicle: acetone 96 % of control | [8] 97 % of control | dose: 50.0 mg/kg/injection, schedule: Q01DX009 (ip), vehicle: acetone 90 % of control | [9] 97 % of control | [3] 92 % of control | dose: 100.0 mg/kg/injection, schedule: Q01DX009 (ip), vehicle: acetone 102 % of control | dose: 100.0 mg/kg/injection, schedule: Q04DX003 (ip), vehicle: saline 92 % of control | [4] 96 % of control | dose: 200.0 mg/kg/injection, schedule: Q01DX009 (ip), vehicle: acetone 97 % of control | dose: 200.0 mg/kg/injection, schedule: Q04DX003 (ip), vehicle: saline 97 % of control

NC(N)=NN=C1CCCCC1
inactive: dose: 15.0 mg/kg/injection, schedule: Q01DX Z (ip), vehicle: saline 92 % of control | dose: 30.0 mg/kg/injection, schedule: Q01DX Z (ip), vehicle: saline 92 % of control | dose: 60.0 mg/kg/injection, schedule: Q01DX Z (ip), vehicle: saline 102 % of control | dose: 60.0 mg/kg/injection, schedule: Q01DX Z (oral), vehicle: saline 105 % of control | dose: 120.0 mg/kg/injection, schedule: Q01DX Z (ip), vehicle: saline 97 % of control | dose: 120.0 mg/kg/injection, schedule: Q01DX Z (oral), vehicle: saline 108 % of control | dose: 240.0 mg/kg/injection, schedule: Q01DX Z (oral), vehicle: saline 100 % of control | dose: 480.0 mg/kg/injection, schedule: Q01DX Z (oral), vehicle: saline 103 % of control

COC(OC)(/C(Cl)=C(\Cl)c1ccccc1)c1ccccc1
inactive: dose: 100.0 mg/kg/injection, schedule: Q04DX002 (ip), vehicle: saline with Tween-80 94 % of control | dose: 200.0 mg/kg/injection, schedule: Q04DX002 (ip), vehicle: saline with Tween-80 88 % of control

CN1CCN(C(=O)c2ccc(Cl)c(Cl)c2)CC1
inactive: dose: 12.5 mg/kg/injection, schedule: Q01DX009 (ip), vehicle: saline with Tween-80 117 % of control | dose: 12.5 mg/kg/injection, schedule: Q04DX003 (ip), vehicle: saline 102 % of control | dose: 25.0 mg/kg/injection, schedule: Q01DX009 (ip), vehicle: saline with Tween-80 114 % of control | [8] 102 % of control | dose: 50.0 mg/kg/injection, schedule: Q01DX009 (ip), vehicle: saline with Tween-80 102 % of control and 115 % of control | [9] 108 % of control | dose: 75.0 mg/kg/injection, schedule: Q01DX009 (ip), vehicle: saline with Tween-80 115 % of control | [10] 95 % of control

COc1ccc(-c2sc(C)c(-c3ccc(OC)cc3)c2C)cc1
inactive: [3] 96 % of control | [4] 96 % of control | [5] 94 % of control

Nc1ccc(-c2ccc3ccccc3n2)cc1
inactive: [1] 92 % of control | [2] 94 % of control | [6] 112 % of control | [7] 103 % of control

COc1cc2c(cc1OC)CN1CCC(=O)CC1C2 (stereo not given)
inactive: dose: 100.0 mg/kg/injection, schedule: Q01DX001 (ip), vehicle: saline with Tween-80 107 % of control | dose: 200.0 mg/kg/injection, schedule: Q01DX001 (ip), vehicle: saline with Tween-80 102 % of control | dose: 400.0 mg/kg/injection, schedule: Q01DX001 (ip), vehicle: saline with Tween-80 106 % of control

CCCCCn1cnc2c(=O)[nH]c(N)nc21
inactive: dose: 50.0 mg/kg/injection, schedule: Q01DX001 (ip), vehicle: Klucel (hydroxypropylcellulose) (HPC) 105 % of control | dose: 100.0 mg/kg/injection, schedule: Q01DX001 (ip), vehicle: Klucel (hydroxypropylcellulose) (HPC) 103 % of control | dose: 200.0 mg/kg/injection, schedule: Q01DX001 (ip), vehicle: Klucel (hydroxypropylcellulose) (HPC) 106 % of control

O=C(O)C1C2CC3C(OC(=O)C31)C2Br (stereo not given)
inactive: [3] 104 % of control | [10] 91 % of control | dose: 100.0 mg/kg/injection, schedule: Q04DX003 (ip), vehicle: saline with Tween-80 91 % of control | [4] 94 % of control | dose: 200.0 mg/kg/injection, schedule: Q01DX009 (ip), vehicle: saline with Tween-80 96 % of control | dose: 200.0 mg/kg/injection, schedule: Q04DX003 (ip), vehicle: saline with Tween-80 100 % of control | [5] 97 % of control | dose: 400.0 mg/kg/injection, schedule: Q01DX009 (ip), vehicle: saline with Tween-80 91 % of control | dose: 400.0 mg/kg/injection, schedule: Q04DX003 (ip), vehicle: saline with Tween-80 104 % of control

— PubChem BioAssay AID248 (DTP/NCI, 2004)
